Assay results taken from the supplement of paper PMC4862054.

tested on: MDA-MB-468; assay: normalised response (% of control), CellTiter-Glo; higher = more viable cells (100 = DMSO, 0 = benzethonium chloride kill control); details: incubation time: 72 h
Experimental: (§1)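 DSRT, 72 h incubation, CellTox Green / CellTiter-Glo readout. Signal is normalised to DMSO and benzethonium chloride controls. Value is the normalised response at dose 3.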

| SMILES | normalised response [%] |
| --- | --- |
| O=C(O)CCCCC(CCSCc1ccccc1)SCc1ccccc1 (stereo not given) [CPI-613] (100 nM) | 102 |
| Nc1nc2[nH]cc(CCc3ccc(C(=O)N[C@@H](CCC(=O)O)C(=O)O)cc3)c2c(=O)[nH]1 [Pemetrexed] (100 nM) | 80.4 |
| Cc1cnc(NC(=O)Nc2cc(Br)c(C)cc2OC[C@@H]2CNCCO2)cn1 [Rabusertib] (10 nM) | 108 |
| CCCCC(=O)OCC(=O)[C@]1(O)Cc2c(O)c3c(c(O)c2[C@@H](O[C@H]2C[C@H](NC(=O)C(F)(F)F)[C@H](O)[C@H](C)O2)C1)C(=O)c1c(OC)cccc1C3=O [Valrubicin] (50 nM) | 92.9 |
| N#Cc1ccc(C(c2ccc(C#N)cc2)n2cncn2)cc1 [Letrozole] (100 nM) | 94.5 |
| CCCS(=O)(=O)Nc1ccc(F)c(C(=O)c2c[nH]c3ncc(-c4ccc(Cl)cc4)cc23)c1F [Vemurafenib] (100 nM) | 91.7 |
| CC[C@H](Nc1ncnc2[nH]cnc12)c1nc2cccc(F)c2c(=O)n1-c1ccccc1 [GS-1101] (100 nM) | 86.8 |
| CC(=O)Nc1cccc(-n2c(=O)n(C3CC3)c(=O)c3c(Nc4ccc(I)cc4F)n(C)c(=O)c(C)c32)c1 [Trametinib] (2.5 nM) | 93.3 |
| Nc1ccccc1NC(=O)c1ccc(CNC(=O)OCc2cccnc2)cc1 [Entinostat] (100 nM) | 96.8 |

tested on: MDA-MB-453; assay: as above; details: incubation time: 72 h
Experimental: as §1

| SMILES | normalised response [%] |
| --- | --- |
| O=C(O)CCCCC(CCSCc1ccccc1)SCc1ccccc1 (stereo not given) [CPI-613] (100 nM) | 104 |
| Nc1nc2[nH]cc(CCc3ccc(C(=O)N[C@@H](CCC(=O)O)C(=O)O)cc3)c2c(=O)[nH]1 [Pemetrexed] (100 nM) | 98.1 |
| Cc1cnc(NC(=O)Nc2cc(Br)c(C)cc2OC[C@@H]2CNCCO2)cn1 [Rabusertib] (10 nM) | 118 |
| CCCCC(=O)OCC(=O)[C@]1(O)Cc2c(O)c3c(c(O)c2[C@@H](O[C@H]2C[C@H](NC(=O)C(F)(F)F)[C@H](O)[C@H](C)O2)C1)C(=O)c1c(OC)cccc1C3=O [Valrubicin] (50 nM) | 118 |
| N#Cc1ccc(C(c2ccc(C#N)cc2)n2cncn2)cc1 [Letrozole] (100 nM) | 101 |
| CCCS(=O)(=O)Nc1ccc(F)c(C(=O)c2c[nH]c3ncc(-c4ccc(Cl)cc4)cc23)c1F [Vemurafenib] (100 nM) | 79.3 |
| CC[C@H](Nc1ncnc2[nH]cnc12)c1nc2cccc(F)c2c(=O)n1-c1ccccc1 [GS-1101] (100 nM) | 84.8 |
| CC(=O)Nc1cccc(-n2c(=O)n(C3CC3)c(=O)c3c(Nc4ccc(I)cc4F)n(C)c(=O)c(C)c32)c1 [Trametinib] (2.5 nM) | 109 |
| Nc1ccccc1NC(=O)c1ccc(CNC(=O)OCc2cccnc2)cc1 [Entinostat] (100 nM) | 103 |

tested on: BT-474; assay: as above; details: incubation time: 72 h
Experimental: as §1

| SMILES | normalised response [%] |
| --- | --- |
| O=C(O)CCCCC(CCSCc1ccccc1)SCc1ccccc1 (stereo not given) [CPI-613] (100 nM) | 106 |
| Nc1nc2[nH]cc(CCc3ccc(C(=O)N[C@@H](CCC(=O)O)C(=O)O)cc3)c2c(=O)[nH]1 [Pemetrexed] (100 nM) | 88.6 |
| Cc1cnc(NC(=O)Nc2cc(Br)c(C)cc2OC[C@@H]2CNCCO2)cn1 [Rabusertib] (10 nM) | 97.6 |
| CCCCC(=O)OCC(=O)[C@]1(O)Cc2c(O)c3c(c(O)c2[C@@H](O[C@H]2C[C@H](NC(=O)C(F)(F)F)[C@H](O)[C@H](C)O2)C1)C(=O)c1c(OC)cccc1C3=O [Valrubicin] (50 nM) | 98.2 |
| N#Cc1ccc(C(c2ccc(C#N)cc2)n2cncn2)cc1 [Letrozole] (100 nM) | 95.5 |
| CCCS(=O)(=O)Nc1ccc(F)c(C(=O)c2c[nH]c3ncc(-c4ccc(Cl)cc4)cc23)c1F [Vemurafenib] (100 nM) | 96.9 |
| CC[C@H](Nc1ncnc2[nH]cnc12)c1nc2cccc(F)c2c(=O)n1-c1ccccc1 [GS-1101] (100 nM) | 92.7 |
| CC(=O)Nc1cccc(-n2c(=O)n(C3CC3)c(=O)c3c(Nc4ccc(I)cc4F)n(C)c(=O)c(C)c32)c1 [Trametinib] (2.5 nM) | 94 |
| Nc1ccccc1NC(=O)c1ccc(CNC(=O)OCc2cccnc2)cc1 [Entinostat] (100 nM) | 94.8 |

tested on: MFM-223; assay: as above; details: incubation time: 72 h
Experimental: as §1

| SMILES | normalised response [%] |
| --- | --- |
| O=C(O)CCCCC(CCSCc1ccccc1)SCc1ccccc1 (stereo not given) [CPI-613] (100 nM) | 106 |
| Nc1nc2[nH]cc(CCc3ccc(C(=O)N[C@@H](CCC(=O)O)C(=O)O)cc3)c2c(=O)[nH]1 [Pemetrexed] (100 nM) | 95.2 |
| Cc1cnc(NC(=O)Nc2cc(Br)c(C)cc2OC[C@@H]2CNCCO2)cn1 [Rabusertib] (10 nM) | 104 |
| CCCCC(=O)OCC(=O)[C@]1(O)Cc2c(O)c3c(c(O)c2[C@@H](O[C@H]2C[C@H](NC(=O)C(F)(F)F)[C@H](O)[C@H](C)O2)C1)C(=O)c1c(OC)cccc1C3=O [Valrubicin] (50 nM) | 101 |
| N#Cc1ccc(C(c2ccc(C#N)cc2)n2cncn2)cc1 [Letrozole] (100 nM) | 106 |
| CCCS(=O)(=O)Nc1ccc(F)c(C(=O)c2c[nH]c3ncc(-c4ccc(Cl)cc4)cc23)c1F [Vemurafenib] (100 nM) | 89.4 |
| CC[C@H](Nc1ncnc2[nH]cnc12)c1nc2cccc(F)c2c(=O)n1-c1ccccc1 [GS-1101] (100 nM) | 91.9 |
| CC(=O)Nc1cccc(-n2c(=O)n(C3CC3)c(=O)c3c(Nc4ccc(I)cc4F)n(C)c(=O)c(C)c32)c1 [Trametinib] (2.5 nM) | 106 |
| Nc1ccccc1NC(=O)c1ccc(CNC(=O)OCc2cccnc2)cc1 [Entinostat] (100 nM) | 104 |

tested on: SK-BR-3; assay: as above; details: incubation time: 72 h
Experimental: as §1

| SMILES | normalised response [%] |
| --- | --- |
| O=C(O)CCCCC(CCSCc1ccccc1)SCc1ccccc1 (stereo not given) [CPI-613] (100 nM) | 104 |
| Nc1nc2[nH]cc(CCc3ccc(C(=O)N[C@@H](CCC(=O)O)C(=O)O)cc3)c2c(=O)[nH]1 [Pemetrexed] (100 nM) | 63.2 |
| Cc1cnc(NC(=O)Nc2cc(Br)c(C)cc2OC[C@@H]2CNCCO2)cn1 [Rabusertib] (10 nM) | 110 |
| CCCCC(=O)OCC(=O)[C@]1(O)Cc2c(O)c3c(c(O)c2[C@@H](O[C@H]2C[C@H](NC(=O)C(F)(F)F)[C@H](O)[C@H](C)O2)C1)C(=O)c1c(OC)cccc1C3=O [Valrubicin] (50 nM) | 94.8 |
